Measurements as given in patent publication US9513294B2, “Megastokes amino-triazolyl-BODIPY compounds and applications to live neuron staining and human serum albumin FA1 drug site probing” (National University of Singapore, priority 2012, dated 2016).

Key:
[1] = Absorbance and fluorescence emission spectra (SpectraMax M2); assay type: physicochemical
In short: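 Spectroscopic data, including quantum yields, were recorded with a SpectraMax M2 instrument and analysed in GraphPrism.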

[2] = Quantum yield measurements versus Acridine Yellow in EtOH; assay type: physicochemical; conditions: excitation 460 nm
In short: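 Emission areas integrated over 510–700 nm were compared with Acridine Yellow in ethanol (Φ=0.47), all excited at 460 nm. The comparative equation was normalized to excitation-wavelength absorbance and solvent refractive index.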

Row | SMILES | λmax Absorp. ([1]; BDCAC library, Table 3) | λmax Emission ([1]; BDCAC library, Table 3) | φ (quantum yield) ([2]; BDCAC library, Table 3) | λmax Absorp. ([1]; BDCCA library, Table 4) | λmax Emission ([1]; BDCCA library, Table 4) | φ (quantum yield) ([2]; BDCCA library, Table 4)
1 | CCCCCCCc1cn(-c2ccc3n2[B-](F)(F)[N+]2=C(N4CCCCC4)C=CC2=C3c2ccc(NC(C)=O)cc2)nn1 [BDCAC-50] | 467 nm | 567 nm | 1.4% | – | – | –
2 | CC(=O)Nc1ccc(C2=C3C=CC(N4CCCCC4)=[N+]3[B-](F)(F)n3c2ccc3-n2cc(C3(O)CCCC3)nn2)cc1 [BDCAC-67] | 469 nm | 592 nm | 0.8% | – | – | –
3 | CC(=O)Nc1ccc(C2=C3C=CC(N4CCCCC4)=[N+]3[B-](F)(F)n3c2ccc3-n2cc(CO)nn2)cc1 [BDCAC-70] | 467 nm | 583 nm | 0.7% | – | – | –
4 | CC(C)(C)c1cn(-c2ccc3n2[B-](F)(F)[N+]2=C(N4CCCCC4)C=CC2=C3c2ccc(NC(=O)CCl)cc2)nn1 [BDCCA-1] | – | – | – | 468 nm | 581 nm | 0.7%
5 | CN(C)Cc1cn(-c2ccc3n2[B-](F)(F)[N+]2=C(N4CCCCC4)C=CC2=C3c2ccc(NC(=O)CCl)cc2)nn1 [BDCCA-2] | – | – | – | 461 nm | 586 nm | 0.4%
6 | O=C(CCl)Nc1ccc(C2=C3C=CC(N4CCCCC4)=[N+]3[B-](F)(F)n3c2ccc3-n2cc(C3CC3)nn2)cc1 [BDCCA-4] | – | – | – | 467 nm | 577 nm | 1.1%
7 | O=C(CCl)Nc1ccc(C2=C3C=CC(N4CCCCC4)=[N+]3[B-](F)(F)n3c2ccc3-n2cc(C3CCCC3)nn2)cc1 [BDCCA-5] | – | – | – | 468 nm | 588 nm | 0.9%
8 | O=C(CCl)Nc1ccc(C2=C3C=CC(N4CCCCC4)=[N+]3[B-](F)(F)n3c2ccc3-n2cc(C3CCCCC3)nn2)cc1 [BDCCA-6] | – | – | – | 467 nm | 555 nm | 2.3%
9 | O=C(CCl)Nc1ccc(C2=C3C=CC(N4CCCCC4)=[N+]3[B-](F)(F)n3c2ccc3-n2cc(CC3CCCC3)nn2)cc1 [BDCCA-7] | – | – | – | 468 nm | 590 nm | 0.9%
10 | O=C(CCl)Nc1ccc(C2=C3C=CC(N4CCCCC4)=[N+]3[B-](F)(F)n3c2ccc3-n2cc(CC3CCCCC3)nn2)cc1 [BDCCA-8] | – | – | – | 468 nm | 589 nm | 0.6%
11 | O=C(CCl)Nc1ccc(C2=C3C=CC(N4CCCCC4)=[N+]3[B-](F)(F)n3c2ccc3-n2cc(-c3ccccc3)nn2)cc1 [BDCCA-9] | – | – | – | 464 nm | 577 nm | 1.1%
12 | Cc1ccc(-c2cn(-c3ccc4n3[B-](F)(F)[N+]3=C(N5CCCCC5)C=CC3=C4c3ccc(NC(=O)CCl)cc3)nn2)cc1 [BDCCA-10] | – | – | – | 463 nm | 558 nm | 2.9%
13 | CC(C)(C)c1ccc(-c2cn(-c3ccc4n3[B-](F)(F)[N+]3=C(N5CCCCC5)C=CC3=C4c3ccc(NC(=O)CCl)cc3)nn2)cc1 [BDCCA-11] | – | – | – | 464 nm | 587 nm | 1.3%
14 | CCCCc1ccc(-c2cn(-c3ccc4n3[B-](F)(F)[N+]3=C(N5CCCCC5)C=CC3=C4c3ccc(NC(=O)CCl)cc3)nn2)cc1 [BDCCA-12] | – | – | – | 464 nm | 552 nm | 1.6%
15 | CN(C)c1ccc(-c2cn(-c3ccc4n3[B-](F)(F)[N+]3=C(N5CCCCC5)C=CC3=C4c3ccc(NC(=O)CCl)cc3)nn2)cc1 [BDCCA-13] | – | – | – | 467 nm | 627 nm | 0.1%
16 | COc1cc(OC)cc(-c2cn(-c3ccc4n3[B-](F)(F)[N+]3=C(N5CCCCC5)C=CC3=C4c3ccc(NC(=O)CCl)cc3)nn2)c1 [BDCCA-14] | – | – | – | 463 nm | 589 nm | 0.8%
17 | O=C(CCl)Nc1ccc(C2=C3C=CC(N4CCCCC4)=[N+]3[B-](F)(F)n3c2ccc3-n2cc(-c3ccc(OC(F)(F)F)cc3)nn2)cc1 [BDCCA-15] | – | – | – | 462 nm | 537 nm | 2.2%
18 | O=C(CCl)Nc1ccc(C2=C3C=CC(N4CCCCC4)=[N+]3[B-](F)(F)n3c2ccc3-n2cc(-c3ccc(F)c(F)c3)nn2)cc1 [BDCCA-16] | – | – | – | 462 nm | 581 nm | 0.7%

Row | SMILES | λmax Absorp. ([1]; BDCAC library, Table 3) | λmax Emission ([1]; BDCAC library, Table 3) | φ (quantum yield) ([2]; BDCAC library, Table 3) | λmax Absorp. ([1]; BDCCA library, Table 4) | λmax Emission ([1]; BDCCA library, Table 4) | φ (quantum yield) ([2]; BDCCA library, Table 4)
19 | O=C(CCl)Nc1ccc(C2=C3C=CC(N4CCCCC4)=[N+]3[B-](F)(F)n3c2ccc3-n2cc(COc3ccccc3)nn2)cc1 [BDCCA-17] | – | – | – | 464 nm | 584 nm | 0.7%
20 | CN(Cc1ccccc1)Cc1cn(-c2ccc3n2[B-](F)(F)[N+]2=C(N4CCCCC4)C=CC2=C3c2ccc(NC(=O)CCl)cc2)nn1 [BDCCA-18] | – | – | – | 465 nm | 587 nm | 0.7%
21 | O=C(CCl)Nc1ccc(C2=C3C=CC(N4CCCCC4)=[N+]3[B-](F)(F)n3c2ccc3-n2cc(CCc3ccccc3)nn2)cc1 [BDCCA-19] | – | – | – | 466 nm | 578 nm | 1.0%
22 | COc1ccc2cc(-c3cn(-c4ccc5n4[B-](F)(F)[N+]4=C(N6CCCCC6)C=CC4=C5c4ccc(NC(=O)CCl)cc4)nn3)ccc2c1 [BDCCA-22] | – | – | – | 464 nm | 586 nm | 1.1%
23 | O=C(CCl)Nc1ccc(C2=C3C=CC(N4CCCCC4)=[N+]3[B-](F)(F)n3c2ccc3-n2cc(-c3ccc(-c4ccccc4)cc3)nn2)cc1 [BDCCA-23] | – | – | – | 464 nm | 575 nm | 1.2%
24 | O=C(CCl)Nc1ccc(C2=C3C=CC(N4CCCCC4)=[N+]3[B-](F)(F)n3c2ccc3-n2cc(-c3ccc(F)cc3F)nn2)cc1 [BDCCA-26] | – | – | – | 465 nm | 568 nm | 1.3%
25 | COc1cccc(-c2cn(-c3ccc4n3[B-](F)(F)[N+]3=C(N5CCCCC5)C=CC3=C4c3ccc(NC(=O)CCl)cc3)nn2)c1 [BDCCA-27] | – | – | – | 463 nm | 552 nm | 2.3%
26 | CCCCCc1ccc(-c2cn(-c3ccc4n3[B-](F)(F)[N+]3=C(N5CCCCC5)C=CC3=C4c3ccc(NC(=O)CCl)cc3)nn2)cc1 [BDCCA-29] | – | – | – | 464 nm | 548 nm | 1.7%
27 | O=C(CCl)Nc1ccc(C2=C3C=CC(N4CCCCC4)=[N+]3[B-](F)(F)n3c2ccc3-n2cc(-c3cc(C(F)(F)F)cc(C(F)(F)F)c3)nn2)cc1 [BDCCA-30] | – | – | – | 458 nm | 556 nm | 2.6%
28 | O=C(CCl)Nc1ccc(C2=C3C=CC(N4CCCCC4)=[N+]3[B-](F)(F)n3c2ccc3-n2cc(-c3cccc(F)c3)nn2)cc1 [BDCCA-31] | – | – | – | 462 nm | 568 nm | 1.0%
29 | CC(C)CCc1cn(-c2ccc3n2[B-](F)(F)[N+]2=C(N4CCCCC4)C=CC2=C3c2ccc(NC(=O)CCl)cc2)nn1 [BDCCA-36] | – | – | – | 467 nm | 584 nm | 0.5%
30 | O=C(CCl)Nc1ccc(C2=C3C=CC(N4CCCCC4)=[N+]3[B-](F)(F)n3c2ccc3-n2cc(C3=CCCCC3)nn2)cc1 [BDCCA-37] | – | – | – | 465 nm | 565 nm | 1.7%
31 | CCCCc1cn(-c2ccc3n2[B-](F)(F)[N+]2=C(N4CCCCC4)C=CC2=C3c2ccc(NC(=O)CCl)cc2)nn1 [BDCCA-42] | – | – | – | 467 nm | 577 nm | 1.3%
32 | CC(C)Cc1cn(-c2ccc3n2[B-](F)(F)[N+]2=C(N4CCCCC4)C=CC2=C3c2ccc(NC(=O)CCl)cc2)nn1 [BDCCA-43] | – | – | – | 466 nm | 583 nm | 0.8%
33 | CCCCCCCCc1cn(-c2ccc3n2[B-](F)(F)[N+]2=C(N4CCCCC4)C=CC2=C3c2ccc(NC(=O)CCl)cc2)nn1 [BDCCA-44] | – | – | – | 466 nm | 582 nm | 0.7%
34 | Cc1cccc(-c2cn(-c3ccc4n3[B-](F)(F)[N+]3=C(N5CCCCC5)C=CC3=C4c3ccc(NC(=O)CCl)cc3)nn2)c1 [BDCCA-45] | – | – | – | 463 nm | 555 nm | 2.7%
35 | CCc1ccc(-c2cn(-c3ccc4n3[B-](F)(F)[N+]3=C(N5CCCCC5)C=CC3=C4c3ccc(NC(=O)CCl)cc3)nn2)cc1 [BDCCA-46] | – | – | – | 464 nm | 568 nm | 1.2%
